Reference: patent US20220127297A1, “Novel Antibacterial 3"-Derivatives Of 4,6-Disubstituted 2,5-Dideoxystreptamine Aminoglycoside Antibiotics” (AGILeBiotics B.V., priority 2018, published 2022)
Where two headings read alike, the source gives them in different places.

System: Klebsiella pneumoniae ATCC BAA-1705
Details: for Avg. Log CFU/g thigh: BID; for decrease in CFU number in thighs in comparison to the vehicle control group: doses of 16 and 64 mg/kg (SC, BID)
Procedure: 4.2 Murine Neutropenic Thigh Model of Infection (Kiebsiella Pneumoniae ATCC BAA-1705)
All animal-related research is conducted in accordance with 2010/63/EU and National legislation regulating the use of laboratory animals in scientific research and for other purposes (Official Gazette 55/13).
In vivo studies and CFU determination were performed by Fidelta (Zagreb, Croatia) and all mice were obtained from Charles River Laboratories (Italy).
Two compounds, i.e. ABX5006 and ABX5020, and a comparator antibiotic (amikacin sulfate; Cat. No. 01693, Chem-Impex) were tested in a mouse model of thigh infection with Klebsiella pneumoniae ATCC BAA-1705.
Neutropenic thigh model: Pathogen-free male CD-1 mice (6 mice per dosing group) weighing 36±4 g were used. Prior to infection, neutropenia was induced in mice by two cyclophosphamide doses applied intraperitoneally four days (150 mg/kg body weight) and one day prior to infection (100 mg/kg body weight). […] For subcutaneous treatment, pre-weighed test item powder (ABX5006) was dissolved in PBS and the pH was adjusted (to reach a near-neutral pH), to reach a final concentration of 6.4 mg/mL for a dose of 64 mg/kg (group 3) or 1.6 mg/mL for a dose of 16 mg/kg (group 2). For subcutaneous treatment, pre-weighed test item powder (ABX5020) was dissolved in PBS and the pH was adjusted (to reach a near-neutral pH), to reach a final concentration of 6.4 mg/mL for a dose of 64 mg/kg (group 7) or 1.6 mg/mL for a dose of 16 mg/kg (group 6). For subcutaneous treatment, pre-weighed reference compound (amikacin sulfate) was dissolved in PBS and the pH was adjusted (to reach a near-neutral pH), to reach a final concentration of 6.4 mg/mL for a dose of 64 mg/kg (group 5) or 1.6 mg/mL for a dose of 16 mg/kg (group 4). Each mouse was infected with Klebsiella pneumoniae ATCC BAA-1705 (1.18×10^6/thigh), under light ketamine/xylazine anesthesia, by intramuscular administration of 0.10 mL of a suspension containing bacteria into both thighs. Animals were dosed subcutaneously twice with 8 h interval. Treatment was started 1 h following infection either with Vehicle—PBS (group 1) or amikacin sulfate (groups 4-5) or test compounds (groups 2-3 and 6-7) as described above. All Mice were overdosed with ketamine/xylazine 24 hours post infection. Thighs were aseptically removed and separately placed into sterile Precellys test tubes containing 2 mL of sterile PBS. Precellys test tubes were weighed and the weight was recorded prior and post-sampling. Each thigh was homogenized in sterile PBS using Ultraturax, IKA. After homogenizing, a serial dilution of the homogenates was used for CFU determination. A CFU count of each thigh acted as a single result.
Supplies/Chemicals. BBL™ Mueller Hinton Broth (REF 275730, Becton Dickinson); BBL™ Mueller Hinton Agar 2 (REF 211438, Becton Dickinson); PBS (Cat. No. P4417, Sigma); Saline (Serial No. 1422115, HZ™); Xylazine 2% (Alfasan, International B.V.); Narkamon (100 mg/mL ketamine chloride, Bioveta); Cyclophosphamide monohydrate (No. C2236, TCI); Sterile, single use needles (BD MICROLANCE Kanuele, 27 G, REF 300220, Becton Dickinson); 5 mL syringes (BD Plastipak, REF 300013, Becton Dickinson).
Anesthesia. 1 mL of Narkamon, 0.2 mL of Xylazine and 9 mL of saline; Dose volume: 10 mL/kg body weight.
Inoculum preparation for intramuscular infection. The strain was streaked out onto MH agar. On the following day Mueller-Hinton broth was inoculated with several colonies of Klebsiella pneumoniae and incubated at 37° C. in an orbital shaker until log phase of growth was reached (OD600=0.6). Log bacteria was centrifuged and suspended in equal volume of sterile PBS and subsequently diluted to obtain a bacterial suspension of adequate inoculum size.

Structure (SMILES) | Avg. Log CFU/g thigh (dose 16 mg/kg, SC) | Avg. Log CFU/g thigh (dose 64 mg/kg, SC) | decrease in CFU number in thighs in comparison to the vehicle control group | animals euthanized prior to second dose due to weak clinical condition (infected neutropenic mice, SC)
N=C(N)NC1C(O)[C@@H](CO)OC(OC2C(F)[C@H](O[C@H]3OC(CN)[C@@H](O)CC3N)C(N)C[C@H]2NC(=O)[C@@H](O)CCN)[C@@H]1O (stereo partly shown) [ABX5006, Tobra-AHB-F-Gua] | 6.08 Log CFU/g | 5.69 Log CFU/g | 2.8-3.2 log 10 | 
NCC[C@H](O)C(=O)N[C@@H]1C[C@H](N)[C@@H](O[C@H]2O[C@H](CN)[C@@H](O)[C@H](O)[C@H]2O)[C@H](O)[C@H]1O[C@H]1O[C@H](CO)[C@@H](O)[C@H](N)[C@H]1O [Amikacin, amikacin, reference compound] | 8.19 Log CFU/g | 7.24 Log CFU/g | did not significantly decrease CFU counts in thighs | 
N=C(NCCN)NC1C(O)[C@@H](CO)OC(OC2C(F)[C@H](O[C@H]3OC(CN)[C@@H](O)CC3N)C(N)C[C@H]2NC(=O)[C@@H](O)CCN)[C@@H]1O (stereo partly shown) [ABX5020, Tobra-AHB-F-Gua-2-amino-ethyl] | 6.18 Log CFU/g | 5.29 Log CFU/g | 2.7-3.6 log 10 | Two animals
